Data published in patent publication US4814329A, “Antihyperlipoproteinemic 5-substituted sulfur-containing benzimidazole derivatives” (Richter Gedeon Vegyeszeti Gyar R.T., priority 1985, dated 1989).
Structures can show the parent of a compound that is named as a salt. Where two headings read alike, the source gives them in different places.

Key:
[1] = acute toxicity, oral, rats; design: species or system male and female rats; settings: rat, in vivo, observed 14 days
From the text: (§1) The acute toxicity of this compound was examined on male and female mice and rats by oral administration.

[2] = acute toxicity, oral, mice; design: species or system male and female mice; settings: mouse, in vivo, observed 14 days
From the text: as §1

[3] = system: washed human thrombocyte suspension; assay: inhibition of lipidperoxidation, thiobarbituric acidic method; assay type: cell-based; settings: induced by N-ethyl-alenicimide, read-out: medium inhibiting concentration, lipidperoxidation
Procedure: Whistar hannover male rats weighing 140-160 g were fed for 7 days with a rat fodder supplemented with 1.5% of cholesterol, 0.5% of sodium cholate and 5% of solid fat. […] The blood samples were centrifuged and the serum total cholesterol and the HDL cholesterol were determined by Backmann enzymatic test, while the triglyceride concentration of the serum was determined by Van Handel's method (J. Lab.: Clin. Med. 41, 486 (1953). The amount of the LDL+VLDL was measured by manganese precipitation turbidimetrically (Schurr, P. E., Schulz, J. R., Day, C. E.: Atherosclerosis Drug Discovery Ed.: C. E. Day, Plenum Press, New York 215 (1976). The antiaggreagtion activity was measured in vitro on human plasm being rich in thrombocytes by a Chrono-log aggregometer. The aggregation was induced by ADP, adrenaline, collagen and arachidonic acid. […]

[4] = system: rats with the cholesterol diet; assay: in vivo test in rats with the cholesterol diet, 10 day treatments (Table 2); settings: rat; for LDL + VLDL percentile change / Serum cholesterol percentile change / triglyceride percentile change / HDL cholesterol percentile change: 10 day treatment
Procedure: […] (Schurr, P. E.; Schultz, J. R., Day, D. E.; Atherosclerosis Drug Discovery Ed.: C. E. Day, Plenum, New York 215 (1976) and Acta Pharm. Hung., 49, 182. (1979) During this time the total cholesterol level of the serum increased with 200-250% compared to the normal level, while the amount of the HDL chloesterol diminished by 45-50%. Groups consisting of six animals were formed. […] Then after a 18 hour starving the animals were bled to death under etheric narcosis on the 8th day. The blood samples were centrifuged and the serum total cholesterol and the HDL cholesterol were determined by Backmann enzymatic test, while the triglyceride concentration of the serum was determined by Van Handel's method (J. Lab.: Clin. Med. 41, 486 (1953). The amount of the LDL+VLDL was measured by manganese precipitation turbidimetrically (Schurr, P. E., Schulz, J. R., Day, C. E.: Atherosclerosis Drug Discovery Ed.: C. E. Day, Plenum Press, New York 215 (1976). The antiaggreagtion activity was measured in vitro on human plasm being rich in thrombocytes by a Chrono-log aggregometer. The aggregation was induced by ADP, adrenaline, collagen and arachidonic acid. […]. The lipidperoxidation was induced by N-ethyl-alenicimide (Arzneimittel-Forschung 29, 981 (1979).
The affect of compound no. 0202479 to the rats with the
cholesterol diet in 10 day treatments

[5] = system: human plasm being rich in thrombocytes; assay: in vitro antiaggregation activity (Chrono-log aggregometer; ADP, adrenaline, collagen, arachidonic acid); assay type: cell-based; settings: for inhibition at 250 µM / inhibition at 500 µM / inhibition at 1000 µM: Homo sapiens
From the text: Whistar hannover male rats weighing 140-160 g were fed for 7 days with a rat fodder supplemented with 1.5% of cholesterol, 0.5% of sodium cholate and 5% of solid fat. (Schurr, P. E.; Schultz, J. R., Day, D. E.; Atherosclerosis Drug Discovery Ed.: C. E. Day, Plenum, New York 215 (1976) and Acta Pharm. Hung., 49, 182. (1979) During this time the total cholesterol level of the serum increased with 200-250% compared to the normal level, while the amount of the HDL chloesterol diminished by 45-50%. Groups consisting of six animals were formed. The compounds of the invention were administered orally starting on the fourth day of the addition of the cholesterol fodder and it was continued by the end of the experiments, by the seventh day, in one or two doses. Then after a 18 hour starving the animals were bled to death under etheric narcosis on the 8th day. The blood samples were centrifuged and the serum total cholesterol and the HDL cholesterol were determined by Backmann enzymatic test, while the triglyceride concentration of the serum was determined by Van Handel's method (J. Lab.: Clin. Med. 41, 486 (1953). The amount of the LDL+VLDL was measured by manganese precipitation turbidimetrically (Schurr, P. E., Schulz, J. R., Day, C. E.: Atherosclerosis Drug Discovery Ed.: C. E. Day, Plenum Press, New York 215 (1976). The antiaggreagtion activity was measured in vitro on human plasm being rich in thrombocytes by a Chrono-log aggregometer. The aggregation was induced by ADP, adrenaline, collagen and arachidonic acid. The determination of the inhibition of the lipidperoxidation was carried out by thiobarbituric acidic method with the aid of washed human thrombocyte suspension. The lipidperoxidation was induced by N-ethyl-alenicimide (Arzneimittel-Forschung 29, 981 (1979).

[6] = ADP induced, read-out: Aggregation inhibition, ADP
[7] = adrenaline induced, read-out: Aggregation inhibition, Adrenaline
[8] = collagen induced, read-out: Aggregation inhibition, Collagene

C=CCSc1nc2ccc(Cc3ccccc3)cc2[nH]1 [compound 0202479, 5-Benzyl-2-(2-propenylthio)-benzimidazole hydrobromide, hydrochloride and base]
LD50 at 336 h [1]: > 2000 mg/kg | LD50 at 336 h [2]: 960 mg/kg | IC50 [3]: 24 µM | effectiveness, in words [4]: remarkably effective | LDL + VLDL percentile change ([4]; 10.0 mg/kg p.o.): -20.8 percentile change | Serum cholesterol percentile change ([4]; 10.0 mg/kg p.o.): -7.8 percentile change | triglyceride percentile change ([4]; 10.0 mg/kg p.o.): -3.1 percentile change | HDL cholesterol percentile change ([4]; 10.0 mg/kg p.o., * 0.01 P 0.05): +47.7 percentile change | HDL cholesterol percentile change ([4]; 30.0 mg/kg p.o.): +40.1 percentile change | Serum cholesterol percentile change ([4]; 30.0 mg/kg p.o., * 0.01 P 0.05): -41.5 percentile change | LDL + VLDL percentile change ([4]; 30.0 mg/kg p.o., ** P 0.01): -48.5 percentile change | triglyceride percentile change ([4]; 30.0 mg/kg p.o., ** P 0.01): -47.7 percentile change | Serum cholesterol percentile change ([4]; 100.0 mg/kg p.o.): -66.3 percentile change | HDL cholesterol percentile change ([4]; 100.0 mg/kg p.o., ** P 0.01): +56.1 percentile change | LDL + VLDL percentile change ([4]; 100.0 mg/kg p.o., ** P 0.01): -80.5 percentile change | triglyceride percentile change ([4]; 100.0 mg/kg p.o., ** P 0.01): -55.8 percentile change | inhibition of aggregation caused by ADP and adrenaline, in words ([5]; ADP and adrenaline): inhibited by the compound-similarly to Clofibrate--in the second phase | inhibition at 250 µM ([5]; read-out: inhibition of aggregation induced by arachidonic acid): 100% | inhibition at 250 µM [5, 6]: 20% | inhibition at 500 µM [5, 6]: 59% | inhibition at 1000 µM [5, 6]: 66% | inhibition at 250 µM [5, 7]: 9% | inhibition at 500 µM [5, 7]: 16% | inhibition at 1000 µM [5, 7]: 73% | inhibition at 250 µM ([5]; arachidonic acid induced, read-out: Aggregation inhibition, Arachidonic acid): 100% | inhibition at 250 µM [5, 8]: 6% | inhibition at 500 µM [5, 8]: 16% | inhibition at 1000 µM [5, 8]: 39%
